Assay results from article PMC3597730, “Novel Phenolic Inhibitors of Small/Intermediate-Conductance Ca^2+-Activated K^+ Channels, KCa3.1 and KCa2.3” (PLoS ONE, 2013).
Where two headings read alike, the source gives them in different places.

Assays:
hERG = tested on: T1, hERG; assay: Whole-cell patch-clamp of hERG tail currents in HEK293 cells; format: cell-based, human; settings: human, HEK293 cells expressing hERG, pH 7.4; hERG; compound 10 µM; read-out: % of control at 10 µM
T1 construct: expressed in transfected cells; gift of Craig January, University of Wisconsin

hERG channels = tested on: T2, hERG channels; assay: as above; format: cell-based, human; settings: 13b 1 µM; caffeic acid, flufenamic acid 10 µM (Table S1)
T2 construct: expressed in transfected cells; gift of Craig January, University of Wisconsin

[1] = tested on: mixed KCa3.1 and KCa2.3 currents in PCAEC; assay: Whole-cell patch-clamp of KCa currents in porcine coronary artery endothelial cells; format: cell-based
[2] = target: T3, KCa3.1 channels in 3T3 fibroblasts (Mus musculus, UniProt O89109); assay: Whole-cell patch-clamp of KCa3.1 currents in 3T3 fibroblasts; format: cell-based
T3 construct: KCa3.1 channels in 3T3 fibroblasts; endogenous in cells; host or cells: 3T3-L1 mouse embryonic fibroblasts

KCa1.1 = tested on: T4, KCa1.1; assay: Whole-cell patch-clamp of KCa1.1 in U251 glioblastoma cells; format: cell-based, human
T4 construct: KCa1.1 in human U251 glioblastoma cells; endogenous in cells; host or cells: U251 glioblastoma cells

hKCa2.3 = target: T5, hKCa2.3 (Homo sapiens, UniProt Q9UGI6); assay: Whole-cell patch-clamp of hKCa2.3 in COS7 cells; format: cell-based
T5 construct: expressed in transfected cells; host or cells: COS7
T5 sequence (Q9UGI6 whole entry): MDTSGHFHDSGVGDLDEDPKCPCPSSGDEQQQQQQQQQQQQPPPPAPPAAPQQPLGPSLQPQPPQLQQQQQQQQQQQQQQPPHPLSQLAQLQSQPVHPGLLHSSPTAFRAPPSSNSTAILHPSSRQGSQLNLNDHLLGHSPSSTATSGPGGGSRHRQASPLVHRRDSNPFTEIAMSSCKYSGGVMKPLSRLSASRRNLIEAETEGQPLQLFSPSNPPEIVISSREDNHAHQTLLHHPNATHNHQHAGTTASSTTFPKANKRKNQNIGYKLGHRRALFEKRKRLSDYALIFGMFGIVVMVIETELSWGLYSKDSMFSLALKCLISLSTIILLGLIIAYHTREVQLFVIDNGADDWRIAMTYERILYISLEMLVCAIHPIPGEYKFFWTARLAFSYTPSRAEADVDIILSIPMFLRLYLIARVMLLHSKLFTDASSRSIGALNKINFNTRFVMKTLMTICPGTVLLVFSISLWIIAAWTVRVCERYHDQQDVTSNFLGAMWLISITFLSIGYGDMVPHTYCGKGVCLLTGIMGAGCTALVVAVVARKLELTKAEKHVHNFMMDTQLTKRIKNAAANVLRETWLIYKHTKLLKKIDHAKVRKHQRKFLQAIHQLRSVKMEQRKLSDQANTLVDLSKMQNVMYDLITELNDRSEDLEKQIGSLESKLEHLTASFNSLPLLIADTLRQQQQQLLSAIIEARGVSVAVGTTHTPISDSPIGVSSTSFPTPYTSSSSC

hKv1.2 = target: T6, hKv1.2 (Homo sapiens, UniProt P16389); assay: Whole-cell patch-clamp of cloned hKv1.2; format: cell-based
T6 construct: expressed in transfected cells; host or cells: B82 murine fibroblasts (Methods)
T6 sequence (P16389 whole entry): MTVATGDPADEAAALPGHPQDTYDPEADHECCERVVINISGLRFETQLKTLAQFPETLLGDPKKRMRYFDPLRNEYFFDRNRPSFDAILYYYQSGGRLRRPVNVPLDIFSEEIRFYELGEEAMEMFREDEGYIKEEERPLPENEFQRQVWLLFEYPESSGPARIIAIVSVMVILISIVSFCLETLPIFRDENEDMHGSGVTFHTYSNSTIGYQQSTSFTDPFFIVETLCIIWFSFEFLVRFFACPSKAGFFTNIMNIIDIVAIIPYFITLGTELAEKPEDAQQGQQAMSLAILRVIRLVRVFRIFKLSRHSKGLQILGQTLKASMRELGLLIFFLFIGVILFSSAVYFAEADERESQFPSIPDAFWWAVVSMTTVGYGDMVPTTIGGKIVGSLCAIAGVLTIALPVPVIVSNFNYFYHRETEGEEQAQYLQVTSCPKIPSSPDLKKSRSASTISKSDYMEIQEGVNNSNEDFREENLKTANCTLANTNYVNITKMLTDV

[3] = tested on: calcium-activated chloride channels; settings: previously shown; no reference given; read-out: reported EC50, calcium-activated chloride channels; cited from earlier work
[4] = tested on: non-selective cation channels; settings: previously shown; no reference given; read-out: reported EC50, non-selective cation channels; cited from earlier work

remaining activity at 1 µM ([2]; KCa3.1 whole-cell current, 3T3 fibroblasts, 1 µM free Ca2+ in pipette, compound 1 µM, mean ± SEM, n ≥3, read-out: % of control at 1 µM): 65 ± 4% | remaining activity at 10 µM ([2]; KCa3.1 whole-cell current, 3T3 fibroblasts, 1 µM free Ca2+ in pipette, compound 10 µM, mean ± SEM, n ≥3, read-out: % of control at 10 µM): 13 ± 5% | remaining activity at 50 µM ([2]; KCa3.1 whole-cell current, 3T3 fibroblasts, 1 µM free Ca2+ in pipette, compound 50 µM, mean ± SEM, n ≥3, read-out: % of control at 50 µM): 2.5 ± 0.3% | remaining activity at 10 µM ([2]; read-out: KCa3.1 current blocked, % of control): 6 ± 1% | KCa3.1 blocking effect (in words) ([2]; whole-cell, 3T3 fibroblasts, concentrations up to 50 µM as in Table 1): Complete inhibition | EC50 ([2]; whole-cell, 3T3 fibroblasts, read-out: EC50 of KCa3.1 inhibition): 1.6 µM | remaining activity at 10 µM (hKCa2.3; COS-7, hKCa2.3, compound 10 µM, mean ± SEM, n ≥ 3, read-out: % of control at 10 µM): 104 ± 5% | remaining activity at 50 µM (hKCa2.3; COS-7, hKCa2.3, compound 50 µM, mean ± SEM, n ≥ 3, read-out: % of control at 50 µM): 100 ± 2% | KCa2.3 blocking effect (in words) (hKCa2.3; micromolar concentrations): no blocking effects | hKv1.2 blocking effect (in words) (hKv1.2; flufenamic acid and caffeic acid 10 and 50 µM, 13c 1 µM): did not block | remaining activity at 10 µM (hKv1.2; hKv1.2, compound 10 µM, read-out: % of control at 10 µM): 106 ± 5% | remaining activity at 50 µM (hKv1.2; hKv1.2, compound 50 µM, read-out: % of control at 50 µM): 100 ± 2%
Structure (SMILES): O=C(O)c1ccccc1Nc1cccc(C(F)(F)F)c1 [Flufenamic Acid, 2-(3-(trifluoromethyl)phenylamino) benzoic acid, reference compound]
activity at 10 µM (hERG): 116 ± 15% | hERG effect (in words) (hERG channels): slight potentiation | mixed KCa3.1/KCa2.3 current, % of control ([1]; 10 µM, n = 2): 25±3% | mixed KCa3.1/KCa2.3 current, % of control ([1]; 50 µM, n = 1): 3% | potentiation of KCa1.1 (KCa1.1; 10 µM): 2.7 fold | % of control at 10 µM (KCa1.1; hKCa1.1, compound 10 µM): 270 ± 106% | EC50 [3]: ~30 µM | EC50 [4]: ~5 µM
